In patent US11603366B2, “Crystalline form and B crystalline form of pyrazine-2(1H)-ketone compound and preparation method thereof” (ZHANGZHOU PIEN TZE HUANG PHARMACEUTICAL CO., LTD., priority 2019, dated 2023):

Assay: Pharmacokinetic evaluation in mice, single intragastric administration
Format: in vivo, CD-1 mice (male)
Settings: 300 mpk, male CD-1 mice, plasma
Description: Experimental Purposes: To Test the Pharmacokinetics of the Compound in Mice
CD-1 mice (male), vehicle (0.5% (w/v) methylcellulose 0.5% (v/v) Tween 80 aqueous solution), trifluoroacetate salt of compound 0027.
Animals in groups 1 and 2 were given 5 mg/mL and 30 mg/mL compound by single intragastric administration, respectively, with a dose volume of 10 mL/kg.
The animals were weighed before administration, and the administration volume was calculated according to the body weight.
Whole blood samples (30 μL) were collected at specified times (0.25, 0.5, 1, 2, 4, 6, 8, 24 hours) by saphenous vein collection and the actual time of collection was recorded in the test record. The acceptable error for the collection time points was ±1 minute for time points within 1 hour of administration and ±5% of the theoretical time for other time points.
All blood samples were immediately transferred to labeled commercial centrifuge tubes containing K2-EDTA. After blood samples were collected, the blood samples were centrifugated at 4° C. and 3200 rpm for 10 minutes, and the supernatant plasma was aspirated, and then quickly put into dry ice at a temperature of −20° C. or lower for LC-MS/MS analysis. And the pharmacokinetic parameters were calculated, and experimental result: See Table 5.

Tlast: 24.0 h
SMILES: COc1cc(OC)c(Cl)c(-c2nc(-c3nc(-c4cn(C)nc4C)cnc3N)cn(C)c2=O)c1
